Experiments:
Lineage-Sca-1+CD31+ EPCs [1] = assay: Cell viability analysis of drug-treated mouse EPCs; type: cell-based; conditions: 500 nM 5′ Aza, 1 mM VPA, 1 mM BIX-01294; 48 hours; data not shown
Description: In an attempt to increase their plasticity, 2.0×10^5 sorted EPCs were seeded on fibronectin coated plates then treated for 48 hours with individual or combinations of epigenetic modifying agents; 500 nM 5′-Azacytidine (5′ Aza; DNA methyltransferase inhibitor), 1 mM valproic acid (VPA; histone deacetylase inhibitor), […] (histone methyltransferase inhibitor). Drug dosages were verified as non-toxic by cell viability analysis (data not shown). […] All mRNA expression was normalized to 18S RNA then presented as a fold difference compared to untreated EPCs. […] Since the treated cells express cardiomyocyte genes at basal level they may be more inclined to differentiate into mature CMCs under conditions conducive for CMC differentiation. Similar changes in gene expression were found in human CD34+ cells with the regimen of 2.5 mM VPA followed by 500 nM 5′ Aza (FIG. 2A). BIX-01294 treatment, even at reduced doses, was toxic to human CD34+ cells and was therefore not used in human cell studies.

Lineage-Sca-1+CD31+ EPCs [2] = assay: Real-time PCR gene expression in drug-treated sorted mouse EPCs; type: cell-based
Description: Relative mRNA expression of target genes was normalized to the endogenous 18S control gene.
Lineage-Sca-1+CD31+ EPCs were cultured on 5 μg/mL human fibronectin coated plates in DMEM supplemented with 10% FBS and penicillin/streptomycin at 37° C. with 5% CO2. Human CD34+ cells were cultured in X-VIVO (Lonza) media supplemented with 0.5% human serum albumin, 50 ng/mL Flt3 ligand, 20 ng/mL stem cell factor, 50 ng/mL VEGF, and 10 ng/mL thrombopoietin. Either cell type was treated with VPA (2.5 mM) for 24 hours then 500 nM 5′ Aza was added to the culture media and cells remained in culture for an additional 24 hours (48 hours total). Different ranges of doses were tested with above doses being determined as the optimal doses not only for reprogramming but also for displaying minimal cellular toxicity. Further, a staggered treatment protocol, that is, contacting an EPC culture with a first epigenetic programming agent (for example, VPA) for a first period of time (for example, 24 hr), followed by contacting the EPC culture with a second epigenetic programming agent (for example, 5′-Aza) for a second period of time (for example, 24 hr) was determined to be a highly preferred protocol for reprogramming. Mouse EPCs were also cultured with 1 μM BIX-01294 for 48 hours in the same culture conditions. […]

human CD34+ cells = assay: Toxicity to human CD34+ cells; type: cell-based; conditions: similar drug doses as for mouse EPCs and even 2-fold reduced levels
Description: In an attempt to increase their plasticity, 2.0×10^5 sorted EPCs were seeded on fibronectin coated plates then treated for 48 hours with individual or combinations of epigenetic modifying agents; 500 nM 5′-Azacytidine (5′ Aza; DNA methyltransferase inhibitor), 1 mM valproic acid (VPA; histone deacetylase inhibitor), 1 mM BIX-01294 (histone methyltransferase inhibitor). Drug dosages were verified as non-toxic by cell viability analysis (data not shown). […] All mRNA expression was normalized to 18S RNA then presented as a fold difference compared to untreated EPCs. […]
The epigenetic reprogramming by these small molecules was evaluated in human CD34+ cells to determine whether their reprogramming potential is limited to mouse EPCs or whether it can also be translated to human EPCs (bone marrow mobilized CD34+ cells), currently used in clinical trials (Losordo D W et al., Circ. Res. 109:428-436 (2011)). CD34+ cells, obtained from healthy donors and provided by Baxter healthcare, were treated or not with VPA (2.5 mM) and 5′ Aza (500 nM) and mRNA expression of pluripotency and cardiomyocyte-specific transcripts was determined. […] In order to determine enhanced functional capacity of reprogrammed CD34+ cells in the repair of post-infarct myocardium, a previously determined sub-therapeutic dose of 2.5×10^4 cells was used for post-AMI transplantation in immune-e-deficient mouse AMI model. […]

SVEC cells = assay: ChIP assay of acetylated H3K9 at Oct4 and cardiomyocyte gene promoters in SVEC cells; type: cell-based, mouse; conditions: p<0.05
[3] = test system: murine endothelial cells (SVEC); assay: Western blot of histone acetylation and methylation in SVEC cells; type: cell-based, mouse; conditions: 1 μM BIX-01294, compared to untreated control cells
Description: Cell lysate from 1.5×10^7 SVEC cells was prepared using whole cell lysate buffer (50 mM Tris-HCl, 0.5% Igepal (NP-40), 150 nM NaCl). […] Equal protein loading in each lane was verified using antibodies against β-actin and changes in modified histone levels were quantified by first normalization to total H3 or H4 protein.
Therefore, murine endothelial cells (SVEC) were treated with either 1 μM BIX-01294 or staggered addition of 1 mM VPA then 500 nM 5′-Azacytidine for 48 h and histone acetylation and methylation were assessed by western blot.

Nkx2.5 promoter = assay: Pyrosequencing methylation analysis of the Nkx2.5 promoter in SVECs; type: cell-based, mouse; conditions: treated vs control SVEC cells

Row | SMILES | toxicity of drug dosages by cell viability analysis (Lineage-Sca-1+CD31+ EPCs [1]) | induction of cardiomyocyte-specific transcripts (Lineage-Sca-1+CD31+ EPCs [2]; real-time PCR immediately after treatment, without cardiomyocyte differentiation conditions) | Oct4 expression, fold difference compared to untreated EPCs (Lineage-Sca-1+CD31+ EPCs [2]; real-time PCR, normalized to 18S RNA, 48 hours with 1 mM BIX-01294, or 24 hours 1 mM VPA then 24 hours 500 nM 5′ Aza) [fold] | toxicity to human CD34+ cells (human CD34+ cells) | acetylated H3K9 bound to cardiac-specific gene promoters (Actn2, Ryr2, TnnT2) (SVEC cells; compared to non-treated cells) | acetylated H3K9 bound to the core (CP) and regulatory promoter (RP) regions of Oct4 (SVEC cells; compared to untreated controls) | reduction of H3K9 di-methylation [3] [%] | CpG methylation patterns of Nkx2.5 (Nkx2.5 promoter)
1 | COc1cc2nc(N3CCCN(C)CC3)nc(NC3CCN(Cc4ccccc4)CC3)c2cc1OC [BIX-01294] | non-toxic | de novo induction of cardiomyocyte-specific transcripts | 9.5±2.0 | toxic | more heavily bound by acetylated H3K9 | significant increase | 64.3±11 | no significant difference
2 | CCCC(CCC)C(=O)O [VPA, valproic acid] | non-toxic | – | – | – | – | – | – | –

From patent US20140134139A1, “CD34+ CELLS AND METHODS OF USE” (NORTHWESTERN UNIVERSITY, priority 2012, published 2014)
